In patent publication US20250092383A1, “COMPOUNDS AND METHODS FOR FBXO22-MEDIATED PROTEIN DEGRADATION” (Northwestern University, priority 2023, published 2025):

Tests used:
Type in all cases: cell-based
[1] = target: T1, FKBP12 interactome (SKP1-CUL1-RBX1 E3 complex) (Homo sapiens, UniProt P62942+Q8NEZ5, C227A/C228A); test: FKBP12-directed enrichment proteomic analysis; conditions: 22-SLF (2 μM) and MG132 (5 μM)
T1 construct: expressed in transfected cells; host or cells: HEK293T (FLAG-FKBP12 and HA-FBXO22 expressed; SKP1, CUL1 and RBX1 are the cells' own)
T1 sequence (P62942 2-108): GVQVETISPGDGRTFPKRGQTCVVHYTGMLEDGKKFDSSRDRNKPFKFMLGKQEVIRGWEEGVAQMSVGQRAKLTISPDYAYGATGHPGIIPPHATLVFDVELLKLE
T1 sequence (Q8NEZ5 whole entry C227A/C228A): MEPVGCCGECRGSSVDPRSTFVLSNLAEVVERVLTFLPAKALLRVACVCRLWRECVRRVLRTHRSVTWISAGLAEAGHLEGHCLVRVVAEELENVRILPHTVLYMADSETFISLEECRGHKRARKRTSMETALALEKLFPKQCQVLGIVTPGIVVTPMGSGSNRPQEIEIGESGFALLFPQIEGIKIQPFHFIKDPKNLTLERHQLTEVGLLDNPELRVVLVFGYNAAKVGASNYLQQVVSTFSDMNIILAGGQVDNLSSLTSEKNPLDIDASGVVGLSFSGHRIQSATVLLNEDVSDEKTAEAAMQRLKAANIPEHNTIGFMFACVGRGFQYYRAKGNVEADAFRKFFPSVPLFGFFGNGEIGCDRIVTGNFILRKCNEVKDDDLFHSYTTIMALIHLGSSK
T1 sequence (P63208 whole entry partner): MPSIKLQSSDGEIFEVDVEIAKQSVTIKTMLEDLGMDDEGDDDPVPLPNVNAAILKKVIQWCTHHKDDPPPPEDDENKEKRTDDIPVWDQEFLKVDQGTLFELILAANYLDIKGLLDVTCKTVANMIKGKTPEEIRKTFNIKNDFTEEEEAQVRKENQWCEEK
Source text: (§1) FIGS. 4A-4C show 22-SLF induces the formation of a ternary complex involving 22-SLF, FKBP12 and FBXO22. […] The bar graph represents quantification of the immunoprecipitated HA-FBXO22 protein content compared to the HA-FBXO22 protein in whole cell lysates (WCL). Data are presented as the mean values (n=2 biological independent samples). […] Data are presented as the mean values (n=2 biological independent samples).
(§2) To comprehensively assess the impact of 22-SLF on the FKBP12 interactome landscape, an enrichment proteomic approach was employed to identify proteins co-immunoprecipitating with FLAG-FKBP12 from HEK293T cells treated with 22-SLF. […] Furthermore, another enrichment proteomic study was conducted comparing FKBP12 interactome landscape in HEK293T cells expressing FBXO22 wildtype and C227AC228A double mutant. […] Collectively, these findings indicate that 22-SLF effectively drives the formation of a ternary complex involving 22-SLF, FBXO22 and FKBP12 by engaging C227/228 in FBXO22, thereby facilitating the subsequent degradation of FKBP12.

[2] = target: T2, FKBP12 interactome (SKP1-CUL1-RBX1 E3 complex) (Homo sapiens, UniProt P62942+Q8NEZ5); test: FKBP12-directed enrichment proteomic analysis; conditions: 22-SLF (2 μM) and MG132 (5 μM)
T2 construct: expressed in transfected cells; host or cells: HEK293T (FLAG-FKBP12 and HA-FBXO22 expressed; SKP1, CUL1 and RBX1 are the cells' own)
T2 sequence (P62942 2-108): as the sequence (P62942 2-108) above
T2 sequence (Q8NEZ5 whole entry): as the sequence (Q8NEZ5 whole entry C227A/C228A) above, with A227C, A228C counted along it
T2 sequence (P63208 whole entry partner): as the sequence (P63208 whole entry partner) above
Source text: as §1, §2

FKBP12 = FKBP12 (Homo sapiens, UniProt P62942); test: Western blot of FLAG-FKBP12 degradation in HEK293T cells expressing HA-FBXO22; set-up: expressed in transfected cells; host or cells: HEK293T
Sequence of FKBP12 (P62942 whole entry): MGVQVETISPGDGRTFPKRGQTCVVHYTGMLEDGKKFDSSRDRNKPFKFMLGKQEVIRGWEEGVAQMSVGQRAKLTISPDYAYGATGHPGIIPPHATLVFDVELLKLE
Method: The bar graph represents quantification of the FLAG-FKBP12/HSP90 protein content. Data are presented as the mean values±s.e.m. […] HEK293T cells expressing HA-FBXO22 were treated with 0.025-15 μM 22-SLF for 8 h. The graph represents quantification of the FLAG-FKBP12/HSP90 protein content. Data are presented as the mean values (n=2 biological independent samples). […] The bar graph represents quantification of the FLAG-FKBP12/HSP90 protein content. KO, knockout; WT, wild type. Data are presented as the mean values (n=2 biological independent samples). […] The bar graph represents quantification of the FLAG-FKBP12/HSP90 protein content. Data are presented as the mean values±s.e.m. […] The result is representative of two independent experiments with similar results. WCL, whole-cell lysate; IP, immunoprecipitate.
FIGS. 3A-3H show FBXO22 C227 and C228 are involved in 22-SLF-mediated degradation of FKBP12. […] Among 5,650 quantified IA-DTB-modified peptides, four cysteines were identified on FBXO22 (C83, C117, C228, and C365). […] Data are presented as the mean values (n=2 biological independent samples for DMSO treatment; n=3 biological independent samples for 22-SLF Treatment). […] The bag graph represents quantification of the FLAG-FKBP12/HSP90 protein content. Data are presented as mean values (n=2 biological independent samples). […] The bar graph represents quantification of the FLAG-FKBP12/HSP90 protein content. Data are presented as the mean values (n=2 biological independent samples).
FIG. 11A-11B show the acrylamide variant of 22-SLF, 22a-SLF, induced the degradation of FKBP12. […] HEK293T cells expressing HA-FBXO22 were treated with 0.5, 1, or 2 μM of 22-SLF or 22a-SLF for 8 hours. The graph represents quantification of the FLAG-FKBP12/HSP90 protein content. Data are presented as mean values (n=2 biological independent samples).
Next, Western blot analysis was used to measure the degradation of FKBP12 induced by 22-SLF. To achieve this, FLAG-tagged FKBP12 and HA-tagged FBXO22 were stably overexpressed in HEK293T cells, followed by subjecting the cells to varying concentrations of 22-SLF. […] Moreover, 22-SLF's effect on FLAG-FKBP12 degradation was concentration-dependent (FIG. 2a). […] The rescue enabled by MLN4924 indicates the involvement of a Cullin-RING ligase (CRL) in the degradation process. This is consistent with FBXO22 belonging to SKP1-CUL1-F-box protein (SCF) ubiquitin ligase complexes, a subfamily of CRL. […] To provide a more comprehensive insight into 22-SLF-induced FKBP12 degradation, a dose-dependent degradation experiment using 11 concentrations of 22-SLF ranging from […] to 15 μM was conducted. This experiment enabled determination of two parameters, the Dmax value, which reached 89%, and the half-maximal degradation concentration (DC50) value, which measured at 0.5 μM (FIG. 2B). […] Collectively, this array of data supports the canonical mechanism of ligand-induced protein degradation. In this mechanism, 22-SLF orchestrates the recruitment of FBXO22 to FKBP12, culminating in the proteasomal degradation of FKBP12.
To identify the cysteine residue(s) in FBXO22 engaged with 22-SLF, HA-FBXO22-expressing HEK293T cells were treated with either DMSO or 22-SLF (2 μM, 2 hours). Using competitive cysteine-directed activity-based protein profiling (ABPP), a chemical proteomics for the measurement of target engagement, the degree of blockade of iodoacetamide-desthiobiotin (IA-DTB)-modified cysteines on FBXO22 was quantified. From a pool of 5,650 quantified IA-DTB-modified peptides, four cysteines on FBXO22 (C83, C117, C228, and C365) (FIG. 3a) were identified, with approximately 20% of FBXO22 C228 being blocked by 22-SLF treatment (FIG. 3b), indicating the potential interaction with this cysteine by 22-SLF. Consequently, C228 was mutated to alanine and HA-FBXO22 C228A-expressing HEK293T cells were generated (FIG. 3c). […]

## CCC(C)(C)C(=O)C(=O)N1CCCC[C@H]1C(=O)O[C@H](CCc1ccc(OC)c(OC)c1)c1cccc(OCC(=O)NCCCOCCOCCOCCCN(C(=O)CCl)C(C(=O)NCc2ccccc2)c2nc3ccccc3s2)c1 (stereo partly shown) [22-SLF]
[1]
  FBXO22 complex enrichment, FBXO22 C227AC228A-expressing cells: enrichment was absent
[2]
  FBXO22 complex enrichment, FBXO22 wildtype-expressing cells: enrichment of the FBXO22 complex
[2]; HEK293T cells
  Proteins co-immunoprecipitating with FLAG-FKBP12: FBXO22 itself, SKP1, CUL1, and NEDD8, as proteins recruited by 22-SLF
FKBP12; 11 concentrations, 0.25 to 15 μM, 8 h, HEK293T expressing HA-FBXO22, read-out: half-maximal degradation concentration (DC50)
  DC50: 500 nM
FKBP12; HEK293T cells expressing HA-FBXO22
  Concentration dependence of FLAG-FKBP12 degradation: concentration-dependent
FKBP12; HEK293T cells expressing the variant
  FKBP12 degradation with FBXO22 double mutant C227AC228A: completely blocked
FKBP12; HEK293T cells expressing the variants
  FKBP12 degradation with FBXO22 single mutants C227A and C228A: partially impeded
FKBP12; HEK293T cells without HA-FBXO22
  Loss of FLAG-FKBP12 expression in cells lacking HA-FBXO22: no reduction was observed
FKBP12; HEK-293T, 11 concentrations, 0.25 to 15 μM, 8 h, HEK293T expressing HA-FBXO22
  Dmax: 89%
FKBP12; time course
  Time to nearly complete FLAG-FKBP12 degradation: ≤ 2 h
